Source: US7932270B2 (Cytokinetics, Inc., priority 2006, dated 2011)

biological target: T1, chicken gizzard smooth muscle myosin subfragment-1 chemically crosslinked to cardiac or skeletal actin (Gallus gallus, UniProt P10587); experiment: Smooth muscle myosin ATPase dose response assay (pyruvate kinase/horseradish peroxidase/pyruvate oxidase-coupled, amplex red fluorescence); format: biochemical; settings: read-out: IC50 Arithmetic Mean
T1 construct: chicken gizzard smooth muscle myosin subfragment-1; from tissue; host or cells: chicken gizzard
Procedure, shortened: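 Chicken gizzard myosin S1 crosslinked to cardiac or skeletal actin, titrated to a set hydrolysis rate; 0.15 mM ATP, 12 mM PIPES pH 7.00, 100 mM KCl, 2 mM MgCl2. Pyruvate kinase/pyruvate oxidase/HRP coupling with amplex red fluorescence; IC50 from 4-parameter fit.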

T1 sequence (P02607 2-151): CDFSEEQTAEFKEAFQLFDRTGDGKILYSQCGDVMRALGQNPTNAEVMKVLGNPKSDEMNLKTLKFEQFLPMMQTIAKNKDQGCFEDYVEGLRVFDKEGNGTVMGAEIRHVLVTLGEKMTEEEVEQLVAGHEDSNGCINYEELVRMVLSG
T1 sequence (P10587 84-789): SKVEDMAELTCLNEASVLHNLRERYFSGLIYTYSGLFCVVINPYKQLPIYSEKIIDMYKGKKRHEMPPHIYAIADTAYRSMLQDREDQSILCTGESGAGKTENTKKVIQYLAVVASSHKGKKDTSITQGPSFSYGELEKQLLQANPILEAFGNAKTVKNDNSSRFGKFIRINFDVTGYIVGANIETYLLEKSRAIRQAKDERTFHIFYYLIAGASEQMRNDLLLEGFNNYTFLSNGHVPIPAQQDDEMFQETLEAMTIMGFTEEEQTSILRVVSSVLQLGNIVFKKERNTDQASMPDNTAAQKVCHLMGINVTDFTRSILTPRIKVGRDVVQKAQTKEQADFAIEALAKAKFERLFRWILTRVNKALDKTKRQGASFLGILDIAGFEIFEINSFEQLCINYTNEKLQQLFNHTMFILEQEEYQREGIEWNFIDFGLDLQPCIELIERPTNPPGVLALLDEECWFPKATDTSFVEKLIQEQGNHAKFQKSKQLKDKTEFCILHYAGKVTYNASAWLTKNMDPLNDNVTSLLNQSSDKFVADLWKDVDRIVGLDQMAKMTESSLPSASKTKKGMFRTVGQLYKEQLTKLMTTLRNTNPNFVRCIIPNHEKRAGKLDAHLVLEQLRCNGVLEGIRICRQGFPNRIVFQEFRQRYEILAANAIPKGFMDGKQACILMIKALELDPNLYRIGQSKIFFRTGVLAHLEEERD

Row | Compound | IC50
1 | N#Cc1ccccc1-c1ccc(C(=O)NCCNC(=O)CCCN)c(NCCc2cccc(F)c2)n1 [4-amino-N-{2-[(6-(2-cyanophenyl)-2-{[2-(3-fluorophenyl)ethyl]amino}(3-pyridyl))carbonylamino]ethyl}butanamide] | 1260 nM
2 | O=Cc1sccc1-c1ccc(C(=O)NCc2cccnc2)c(NCCc2cccc(F)c2)n1 [(2-{[2-(3-fluorophenyl)ethyl]amino}-6-(2-formyl(3-thienyl))(3-pyridyl))-N-(3-pyridylmethyl)carboxamide] | 1480 nM
3 | C[C@@H](N)CNC(=O)c1ccc(-c2ccccc2C#N)nc1NCCc1cccc(F)c1 [N-((2R)-2-aminopropyl)(6-(2-cyanophenyl)-2-{[2-(3-fluorophenyl)ethyl]amino}(3-pyridyl))carboxamide] | 399 nM
4 | Cn1cc(-c2nc(NCCc3cccc(F)c3)c(C(=O)NCCCNC(=O)CNC(=O)OC(C)(C)C)cc2F)cn1 [2-[(tert-butoxy)carbonylamino]-N-{3-[(5-fluoro-2-{[2-(3-fluorophenyl)ethyl]amino}-6-(1-methylpyrazol-4-yl)(3-pyridyl))carbonylamino]propyl}acetamide] | 768 nM
5 | N#Cc1ccccc1-c1ccc(C(=O)NC[C@H]2CN(CCN)CC(=O)N2)c(NCCc2cccc(F)c2)n1 [N-{[(2S)-4-(2-aminoethyl)-6-oxopiperazin-2-yl]methyl}(6-(2-cyanophenyl)-2-{[2-(3-fluorophenyl)ethyl]amino}(3-pyridyl))carboxamide] | 623 nM
6 | COCCN[C@H](C)CNC(=O)c1cc(F)c(-c2cnn(C)c2)nc1NCCc1cccc(F)c1 [N-{(2R)-2-[(2-methoxyethyl)amino]propyl}(5-fluoro-2-{[2-(3-fluorophenyl)ethyl]amino}-6-(1-methylpyrazol-4-yl)(3-pyridyl))carboxamide] | 2330 nM
7 | CN1CCN(C(=O)CCCN)[C@@H](CNC(=O)c2ccc(-c3ccccc3C#N)nc2NCCc2cccc(F)c2)C1 [N-{[(2S)-1-(4-aminobutanoyl)-4-methylpiperazin-2-yl]methyl}(6-(2-cyanophenyl)-2-{[2-(3-fluorophenyl)ethyl]amino}(3-pyridyl))carboxamide] | 2320 nM
8 | N#Cc1ccccc1-c1ccc(C(=O)NC[C@@H]2CCCCN2)c(NCCc2cccc(F)c2)n1 [N-[((2S)(2-piperidyl))methyl](6-(2-cyanophenyl)-2-{[2-(3-fluorophenyl)ethyl]amino}(3-pyridyl))carboxamide] | 1020 nM
9 | N#Cc1ccccc1-c1ccc(C(=O)NCc2cccnc2CNC(=O)c2ccc(-c3ccccc3C#N)nc2NCCc2cccc(F)c2)c(NCCc2cccc(F)c2)n1 [(6-(2-cyanophenyl)-2-{[2-(3-fluorophenyl)ethyl]amino}(3-pyridyl))-N-[(3-{[(6-(2-cyanophenyl)-2-{[2-(3-fluorophenyl)ethyl]amino}(3-pyridyl))carbonylamino]methyl}(2-pyridyl))methyl]carboxamide] | 2440 nM
10 | O=C(NCc1cccnc1)c1ccc(-c2cc(CO)ccc2Cl)nc1NCCc1cccc(F)c1 [(6-[2-chloro-5-(hydroxymethyl)phenyl]-2-{[2-(3-fluorophenyl)ethyl]amino}(3-pyridyl))-N-(3-pyridylmethyl)carboxamide] | 1190 nM
11 | COC(=O)N1CCN(C)C[C@@H]1CNC(=O)c1ccc(-c2ccccc2C#N)nc1NCCc1cccc(F)c1 [methyl (2S)-2-{[(6-(2-cyanophenyl)-2-{[2-(3-fluorophenyl)ethyl]amino}(3-pyridyl))carbonylamino]methyl}-4-methylpiperazinecarboxylate] | 10100 nM
12 | N#Cc1ccccc1-c1ccc(C(=O)NCc2cccnc2)c(NCCC2CCCO2)n1 (stereo not drawn) [{6-(2-cyanophenyl)-2-[(2-oxolan-2-ylethyl)amino](3-pyridyl)}-N-(3-pyridylmethyl)carboxamide] | 920 nM
13 | O=C(NCc1cccnc1)c1ccc(-c2ccccc2)nc1NCC(O)c1cccc(F)c1 (stereo not drawn) [(2-{[2-(3-fluorophenyl)-2-hydroxyethyl]amino}-6-phenyl(3-pyridyl))-N-(3-pyridylmethyl)carboxamide] | 559 nM
14 | CC(C)[C@H](CNC(=O)c1ccc(-c2ccccc2C#N)nc1NCCc1cccc(F)c1)NC(=O)CN [N-((1R)-1-{[(6-(2-cyanophenyl)-2-{[2-(3-fluorophenyl)ethyl]amino}(3-pyridyl))carbonylamino]methyl}-2-methylpropyl)-2-aminoacetamide] | 939 nM
15 | Cn1cc(-c2nc(NCCc3cccc(F)c3)c(C(=O)NCCCNC(=O)OC(C)(C)C)cc2F)cn1 [N-{3-[(tert-butoxy)carbonylamino]propyl}(5-fluoro-2-{[2-(3-fluorophenyl)ethyl]amino}-6-(1-methylpyrazol-4-yl)(3-pyridyl))carboxamide] | 4500 nM
16 | CC(C)C[C@H](CNC(=O)c1ccc(-c2ccccc2C#N)nc1NCCc1cccc(F)c1)NC(=O)CO [N-((1R)-1-{[(6-(2-cyanophenyl)-2-{[2-(3-fluorophenyl)ethyl]amino}(3-pyridyl))carbonylamino]methyl}-3-methylbutyl)-2-hydroxyacetamide] | 1170 nM
17 | N#Cc1ccccc1-c1ccc(C(=O)NCc2cccnc2)c(NCC(O)c2cccc(F)c2)n1 (stereo not drawn) [(6-(2-cyanophenyl)-2-{[2-(3-fluorophenyl)-2-hydroxyethyl]amino}(3-pyridyl))-N-(3-pyridylmethyl)carboxamide] | 339 nM
18 | NCCn1ccc(CNC(=O)c2ccc(-c3cc[nH]n3)nc2NCCc2cccc(F)c2)n1 [N-{[1-(2-aminoethyl)pyrazol-3-yl]methyl}(2-{[2-(3-fluorophenyl)ethyl]amino}-6-pyrazol-3-yl(3-pyridyl))carboxamide] | 5510 nM
19 | O=C(NCc1cccnc1)c1ccc(-c2ccccc2)nc1NCC1CCCO1 (stereo not drawn) [{2-[(oxolan-2-ylmethyl)amino]-6-phenyl(3-pyridyl)}-N-(3-pyridylmethyl)carboxamide] | 4830 nM
20 | N#Cc1ccccc1-c1ccc(C(=O)NCC2(CCN=[N+]=[N-])CCCNC2=O)c(NCCc2cccc(F)c2)n1 (stereo not drawn) [(6-(2-cyanophenyl)-2-{[2-(3-fluorophenyl)ethyl]amino}(3-pyridyl))-N-{[3-(3-diazo-3-azaprop-3-enyl)-2-oxo(3-piperidyl)]methyl}carboxamide] | 15800 nM

The next compounds have a lower IC50 than those just listed; values first:

Row | IC50 | Compound
21 | 59 nM | N[C@@H](CO)C(=O)N1CCC[C@@H]1CNC(=O)c1cc(F)c(-c2cn[nH]c2)nc1NCCc1cccc(F)c1 [N-{[(2R)-1-((2S)-2-amino-3-hydroxypropanoyl)pyrrolidin-2-yl]methyl}(5-fluoro-2-{[2-(3-fluorophenyl)ethyl]amino}-6-pyrazol-4-yl(3-pyridyl))carboxamide]
22 | 99 nM | N#Cc1ccccc1-c1ccc(C(=O)NC[C@H]2CCCN2C(=O)CCCCN)c(NCCc2cccc(F)c2)n1 [N-{[(2R)-1-(5-aminopentanoyl)pyrrolidin-2-yl]methyl}(6-(2-cyanophenyl)-2-{[2-(3-fluorophenyl)ethyl]amino}(3-pyridyl))carboxamide]
23 | 34 nM | O=C(NCc1cc[nH]n1)c1ccc(-c2cn[nH]c2)nc1NCCc1cccc(F)c1 [(2-{[2-(3-fluorophenyl)ethyl]amino}-6-pyrazol-4-yl(3-pyridyl))-N-(pyrazol-3-ylmethyl)carboxamide]
24 | 155 nM | N#Cc1ccccc1-c1ccc(C(=O)NC[C@H]2CNCC(=O)N2)c(NCCc2cccc(F)c2)n1 [N-[((2R)-6-oxopiperazin-2-yl)methyl](6-(2-cyanophenyl)-2-{[2-(3-fluorophenyl)ethyl]amino}(3-pyridyl))carboxamide]
25 | 141 nM | Cn1cc(-c2nc(NCCc3cccc(F)c3)c(C(=O)NC[C@H]3CCN3C(=O)C(C)(C)O)cc2F)cn1 [N-{[(2R)-1-(2-hydroxy-2-methylpropanoyl)azetidin-2-yl]methyl}(5-fluoro-2-{[2-(3-fluorophenyl)ethyl]amino}-6-(1-methylpyrazol-4-yl)(3-pyridyl))carboxamide]
26 | 161 nM | N#Cc1ccccc1-c1ccc(C(=O)NC[C@H]2CCCCN2C(=O)[C@H](N)CN)c(NCCc2cccc(F)c2)n1 [N-{[(2R)-1-((2R)-2,3-diaminopropanoyl)(2-piperidyl)]methyl}(6-(2-cyanophenyl)-2-{[2-(3-fluorophenyl)ethyl]amino}(3-pyridyl))carboxamide]
27 | 38 nM | N#Cc1ccccc1-c1nc(NCCc2cccc(F)c2)c(C(=O)NC[C@H]2CCCN2C(=O)CCCN)cc1F [N-{[(2R)-1-(4-aminobutanoyl)pyrrolidin-2-yl]methyl}(6-(2-cyanophenyl)-5-fluoro-2-{[2-(3-fluorophenyl)ethyl]amino}(3-pyridyl))carboxamide]
28 | 24 nM | O=C(NCc1ccccn1)c1cc(F)c(-c2cn[nH]c2)nc1NCCc1cccc(F)c1 [(5-fluoro-2-{[2-(3-fluorophenyl)ethyl]amino}-6-pyrazol-4-yl(3-pyridyl))-N-(2-pyridylmethyl)carboxamide]
29 | 92 nM | O=C(NCc1cc[nH]n1)c1ccc(-c2cc[nH]n2)nc1NCCc1cccc(F)c1 [(2-{[2-(3-fluorophenyl)ethyl]amino}-6-pyrazol-3-yl(3-pyridyl))-N-(pyrazol-3-ylmethyl)carboxamide]
30 | 185 nM | N#Cc1ccccc1-c1ccc(C(=O)NCCCC(N)=O)c(NCCc2cccc(F)c2)n1 [N-(3-carbamoylpropyl)(6-(2-cyanophenyl)-2-{[2-(3-fluorophenyl)ethyl]amino}(3-pyridyl))carboxamide]
31 | 39 nM | N#Cc1ccccc1-c1ccc(C(=O)NC[C@H]2CCC(=O)N2CCCCCN)c(NCCc2cccc(F)c2)n1 [N-{[(2R)-1-(5-aminopentyl)-5-oxopyrrolidin-2-yl]methyl}(6-(2-cyanophenyl)-2-{[2-(3-fluorophenyl)ethyl]amino}(3-pyridyl))carboxamide]
32 | 30 nM | Cn1cc(-c2nc(NCCc3cccc(F)c3)c(C(=O)NCc3cccnc3CN)cc2Cl)cn1 [N-{[2-(aminomethyl)(3-pyridyl)]methyl}(5-chloro-2-{[2-(3-fluorophenyl)ethyl]amino}-6-(1-methylpyrazol-4-yl)(3-pyridyl))carboxamide]
33 | 92 nM | N#Cc1ccccc1-c1ccc(C(=O)NC[C@H]2CCCCN2C(=O)CN)c(NCCc2cccc(F)c2)n1 [N-{[(2R)-1-(2-aminoacetyl)(2-piperidyl)]methyl}(6-(2-cyanophenyl)-2-{[2-(3-fluorophenyl)ethyl]amino}(3-pyridyl))carboxamide]
